One may read the IC50 as the concentration that inhibits the measured activity by half.

≈ marks a conversion by molar mass, not a printed value. Like-named read-outs stand apart in the source and are kept apart here.

A short description of data set [1]: MTT cytotoxicity assay, normal cell line L-929. It counts as cell-based. Particulars: L-929 mouse fibroblast cells (normal cell line), L-929 normal mouse fibroblast, 0.5–50 μg/mL, mean ± SD, read-out: Cytotoxic activity IC50, L-929. The protocol:
[Worded in the source for another cell line; this cell line is reported under the same test.] (§1) Anti-proliferative activity of compounds (0.5–50 μg/mL) against three human cancer cell lines were carried out by MTT test as specified in our previous study (Sen et al. [2015]). Compounds were tested for their cytotoxic activities. Cell viability and cytotoxic activity profile of the compounds were analyzed using the MTT assay (Mosman 1983; Woerdenbag et al. [1986]; Beekman et al. [1997]). MTT is cleaved to formazan by the ‘succinate-tetrazolium reductase’ system (EC 1.3.99.1) which belongs to the mitochondrial respiratory chain and is active only in viable cells. Different cell lines were used for the determination of cytotoxic activity [HeLa; (ATCC®, CCL- 2™), MCF-7 (ATCC®, HTB-22™), PC-3; (ATCC®, CRL-1435™)]. The cells were cultured with DMEM (Dulbecco’s Modified Eagle’s Medium) supplemented with 10% FBS (Foetal bovine serum), 1% L-glutamine and antibiotic solutions (penicillin–streptomycin–amphotericin).
(§2) In vitro cytotoxicity test was done by the method of modified Woerdenbag et al. ([1986]). The MTT metabolic assay was carried out with cells seeded at a density of 1 × 10^4 cells/well in 96-well flat-bottom cell culture plates with 100 μL of opti-MEM and 24–48 h incubation at 37 °C, 5% CO2. The following day, media was aspirated and the compounds were dissolved in DMSO and diluted with medium before they were added to the cell cultures at different concentrations. Cells were incubated for 48 h at 37 °C, 5% CO2. After the incubation period, 10 μL of the MTT labelling reagent [final concentration […] (Cell proliferation kit MTT, Roche, Germany)] was added to each well. The cultures were incubated for 4–12 h in a humidified atmosphere (e.g., 37 °C, 5% CO2) and 100 μL of the solubilization buffer was added into each well. The plate was allowed to stand overnight in the incubator in a humidified atmosphere (e.g., 37 °C, 5% CO2), the formazan precipitates were solubilized. Absorbance of the formazan product was measured spectrophotometrically at 550 and 690 nm.
(Tetrazolium dyes change colour on reduction, which living cells bring about.)

Data set [2] deals with PC-3 (prostate adenocarcinoma). Put plainly: MTT anti-proliferative assay, PC-3. It counts as cell-based. Particulars: Homo sapiens; PC-3, MCF-7 excluded; PC-3, MTT, 48 h, 0.5–50 μg/mL, mean ± SD; read-out: Cytotoxic activity IC50, PC-3. The procedure:
as §1, §2

The test system of data set [3] is Hela (cervix adenocarcinoma). Put plainly: MTT anti-proliferative assay, Hela. The data set is classed as cell-based. The conditions noted are these: Homo sapiens, 48 h, 0.5–50 μg/mL, mean ± SD, read-out: Cytotoxic activity IC50, Hela. The protocol:
as §1, §2

The test system of data set [4] is MCF-7 (breast adenocarcinoma). Put plainly: MTT anti-proliferative assay, MCF-7. It counts as cell-based. Particulars: Homo sapiens, MCF7; MCF-7, MTT, 48 h, 0.5–50 μg/mL, mean ± SD; read-out: Cytotoxic activity IC50, MCF-7. The protocol:
as §1, §2

Data set [5] relates to human ductal carcinoma (BT-549) cells. More on the design: method as in Erel et al. ([2011]). The conditions noted are these: ref Erel et al. ([2011]); cited from earlier work.
For a further data set, the system named is MCF-7 cell lines. More on the design: method as in Bruno et al. [2005]; Csapi et al. [2010]. Particulars: ref Bruno et al. [2005], Csapi et al. [2010], cited from earlier work; for Activity on MCF-7 cell lines: same value converted.
In data set [6] the test system is human malignant melanoma (SK-MEL) cells. More on the design: method as in Erel et al. ([2011]). Particulars: ref Erel et al. ([2011]); cited from earlier work.

Take `COc1ccc(-c2cc(=O)c3c(O)c(OC)c(OC)cc3o2)cc1OC` [3′-O-Methyl eupatorin]: in data set [1], the IC50 at 48 h is more than 50 µg/mL. For the same molecule, the IC50 in data set [2], in data set [3] and in data set [4] was more than 50 µg/mL in each case.

On to `O=c1cc(-c2ccc(O)cc2)oc2cc(O)cc(O)c12` [Apigenin], for which the IC50 at 48 h in data set [1] is more than 50 µg/mL. For the same molecule, the IC50 was 44.13 ± 0.33 µg/mL (≈ 163 µM) in data set [2], more than 50 µg/mL in data set [3] and more than 50 µg/mL in data set [4].

Turning to `COc1cc2oc(-c3ccc(O)cc3)cc(=O)c2c(O)c1OC` [Cirsimaritin], the half-inhibitory concentration (IC50) at 48 h in data set [1] is more than 50 µg/mL. For the same molecule, the IC50 was 4.3 ± 1.55 µg/mL (≈ 13.7 µM) in data set [2], more than 50 µg/mL in data set [3] and more than 50 µg/mL in data set [4].

In the case of `C=C1C(=O)O[C@@H]2/C=C(\CO)CC/C=C(\C)C[C@H](OC(=O)C(=C)[C@@H](O)CO)[C@@H]12` [Cnicin], the IC50 at 48 h in data set [1] is more than 50 µg/mL. For the same molecule, in data set [5], the “Cytotoxic effect, BT-549” value is listed as “cytotoxic effect”. The IC50 is 31.5 ± 0.71 µg/mL (≈ 83.3 µM) in data set [2]; more than 50 µg/mL in data set [3]; 16.8 µM in the data set with MCF-7 cell lines (another study); 4.2 µM in the data set with MCF-7 cell lines (previous study); 3.25 ± 0.03 µg/mL (≈ 8.59 µM) in data set [4]. Further, the entries for the “Activity on MCF-7 cell lines” value in the data set with MCF-7 cell lines (another study) and in the data set with MCF-7 cell lines (previous study) were 6.37 µg/mL and 1.59 µg/mL, respectively. The “Cytotoxic effect, SK-MEL” value in data set [6] was “cytotoxic effect”.

Regarding `C=C[C@]1(C)C[C@H](O)[C@H]2C(=C)C(=O)O[C@@H]2[C@H]1C(=C)CO` [Dehydromelitensin], the IC50 at 48 h in data set [1] was more than 50 µg/mL. The results for the IC50 in data set [2], in data set [3] and in data set [4] were 25 ± 0.44 µg/mL (≈ 94.6 µM), more than 50 µg/mL and 28.9 ± 0.95 µg/mL (≈ 110 µM), respectively.

Regarding `COc1ccc(-c2cc(=O)c3c(O)c(OC)c(OC)cc3o2)cc1O` [Eupatorin], the IC50 at 48 h in data set [1] was more than 50 µg/mL. For the same molecule, the IC50 in data set [2] was 35.69 ± 0.3 µg/mL (≈ 104 µM); in data set [3], more than 50 µg/mL; in data set [4], more than 50 µg/mL.

Regarding `COc1cc(-c2cc(=O)c3c(O)c(OC)c(O)cc3o2)ccc1O` [Jaceosidin], in data set [1], the IC50 at 48 h is more than 50 µg/mL. Further, the IC50 in data set [2], in data set [3] and in data set [4] was more than 50 µg/mL in each case.

On to `CC1(C)CC[C@]2(C(=O)O)CC[C@]3(C)C(=CC[C@@H]4[C@@]5(C)CC[C@H](O)C(C)(C)[C@@H]5CC[C@]43C)[C@@H]2C1` [Oleanolic acid], for which the IC50 at 48 h in data set [1] was more than 50 µg/mL. The IC50 in data set [2] was 45.38 ± 0.42 µg/mL (≈ 99.4 µM); in data set [3], more than 50 µg/mL; in data set [4], more than 50 µg/mL.

`COc1ccc(-c2cc(=O)c3c(O)c(OC)c(O)cc3o2)cc1` [Pectolinarigenin]: the IC50 at 48 h in data set [1] is more than 50 µg/mL. Also, the IC50 is more than 50 µg/mL in data set [2], more than 50 µg/mL in data set [3] and 35.5 ± 2.7 µg/mL (≈ 113 µM) in data set [4].

For `COc1ccc(-c2cc(=O)c3c(O)c(OC)c(OC)cc3o2)cc1` [Salvigenin], the IC50 at 48 h in data set [1] is more than 50 µg/mL. In addition, the IC50 in data set [2], in data set [3] and in data set [4] was more than 50 µg/mL each time.

Turning to `C=C1CC[C@]2(C)CC[C@]3(C)[C@H](CC[C@@H]4[C@@]5(C)CC[C@H](O)C(C)(C)[C@@H]5CC[C@]43C)[C@H]2[C@@H]1C` [Taraxasterol], the IC50 at 48 h in data set [1] is more than 50 µg/mL. For the same molecule, the IC50 in data set [2], in data set [3] and in data set [4] was more than 50 µg/mL throughout.

The values above are taken from PMC6130618, “Bioactivity-guided isolation of anti-proliferative compounds from endemic Centaurea kilaea” (Pharmaceutical Biology, 2016).
